One compound from US8178574B2, “Tosylate salt of trans-N-isobutyl-3-fluoro-3-[3-fluoro-4-(pyrrolidin-1-yl-methyl)-phenyl] cyclobut anecarboxamide” (Pfizer Inc., priority 2007, dated 2012) can be followed below.

The nature of data set [1]: Aqueous solubility of the crystalline compound (RP-HPLC after temperature cycling). The data set is classed as physicochemical. Particulars: for solubility thermodynamic at 25 h: aqueous buffer. The protocol: The following information was determined in regard of aqueous solubility. […] These values represent the solubility of the crystalline compound determined via RP-HPLC analysis after subjecting the drug media mixture to a temperature cycling program (40° C. for 8 hours, 15° C. for 5 hours, and 25° C. for 12 hours).

Data set [2] can be described thus: Hygroscopicity by dynamic vapor sorption (VTI, kinetic experiment). The data set is classed as physicochemical. The protocol: Hygroscopicity was assessed using a dynamic vapor sorption technique in which an accurately weighed sample is subjected to progressively changing water vapor pressure while simultaneously recording the weight change. The experiment is conducted isothermally at 25° C.
During the initial drying cycle (25° C., 1-3% RH), approximately 0.8% weight loss was observed, which is consistent with an anhydrous form. The sample gained 0.5% of its original weight when exposed to relative humidities from 0% to 90% at 25° C. (CQG≦2% wt. gain at 90% RH). […] FIG. 5 (VTI Moisture Sorption Data) reports results achieved in a step isotherm at a heating rate of 1° C./minute.

Where a name gives a salt, the structure may show the parent alone.

As a reminder, the solubility (thermodynamic) is solubility found after equilibrating the solid with the medium. Regarding `CC(C)CNC(=O)[C@H]1C[C@@](F)(c2ccc(CN3CCCC3)c(F)c2)C1` [tosylate salt of the invention], the solubility in data set [1] (0.1M phosphate buffered saline with 0.5 weight percent sodium taurocholate/phosphatidyl choline salts, final pH 7.4) was 7.0 mgA/mL. In addition, the thermodynamic solubility at 25 h came out at 5 mg/mL in data set [1] (0.1M phosphate buffered saline, final pH 6.3, temperature cycling 40/15/25° C.) and 8.4 mg/mL in data set [1] (unbuffered water, final pH 4.7). In data set [2] (25° C., 1-3% RH), the “weight loss during initial drying cycle” value is given as “approximately 0.8%”. The “hygroscopicity (in words)” value in data set [2] (kinetic experiment (VTI), 25° C.) was “very slightly hygroscopic”. Moreover, the “weight gain (of original weight)” value in data set [2] (relative humidities from 0% to 90% at 25° C.) came to 0.5%.
